Results taken from patent publication US8492376B2, “Heteroaryl-cyclohexyl-tetraazabenzo[e]azulenes” (Hoffmann-La Roche Inc., priority 2010, dated 2013).
Counter-ions that a name gives are not always drawn.

target: T1, human V1a receptor (Homo sapiens, UniProt P37288); assay: human V1a receptor binding studies (3H-Vasopressin, SPA beads); conditions: membranes from HEK293 cells transiently transfected with human V1a receptor, Ki calculated from IC50 by the Cheng-Prussoff equation, read-out: pKi (hV1a) (converted)
T1 construct: expressed in transfected cells; host or cells: HEK293 cells, transiently transfected; cell membranes
T1 sequence (P37288 whole entry): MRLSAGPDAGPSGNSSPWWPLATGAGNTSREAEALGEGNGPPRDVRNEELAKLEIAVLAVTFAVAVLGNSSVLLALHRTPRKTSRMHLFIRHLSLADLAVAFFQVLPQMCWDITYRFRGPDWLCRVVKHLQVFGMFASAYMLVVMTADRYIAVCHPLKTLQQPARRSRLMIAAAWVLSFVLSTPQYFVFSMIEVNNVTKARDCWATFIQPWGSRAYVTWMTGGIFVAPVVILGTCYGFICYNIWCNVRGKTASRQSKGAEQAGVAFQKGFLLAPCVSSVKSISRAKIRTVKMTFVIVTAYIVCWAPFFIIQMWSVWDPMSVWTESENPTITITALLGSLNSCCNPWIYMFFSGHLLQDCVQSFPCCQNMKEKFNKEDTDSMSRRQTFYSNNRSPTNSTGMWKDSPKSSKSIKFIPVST
Protocol: The human V1a receptor was cloned by RT-PCR from total human liver RNA. The coding sequence was subcloned in an expression vector after sequencing to confirm the identity of the amplified sequence. […] Cell membranes were prepared from HEK293 cells transiently transfected with the expression vector and grown in 20 liter fermenters with the following protocol.
50 g of cells are resuspended in 30 ml freshly prepared ice cold Lyses buffer (50 mM HEPES, 1 mM EDTA, 10 mM magnesium dichloride adjusted to pH=7.4+complete cocktail of protease inhibitor (Roche Diagnostics)). Homogenized with Polytron for 1 min and solicited on ice for 2×2 minutes at 80% intensity (Vibrate solicitor). The preparation is centrifuged 20 min at 500 g at 4° C., the pellet is discarded and the supernatant centrifuged 1 hour at 43′000 g at 4° C. (19′000 rpm). The pellet is resuspended in 12.5 ml Lyses buffer+12.5 ml sucrose 20% and homogenized using a Polytron for 1-2 min. The protein concentration is determined by the Bradford method and aliquots are stored at −80° C. until use. For binding studies 60 mg Yttrium silicate SPA beads (Habersham®) are mixed with an aliquot of membrane in binding buffer (50 mM Tris, 120 mM sodium chloride, 5 mM potassium chloride, 2 mM calcium dichloride, 10 mM magnesium dichloride) for 15 minutes with mixing. 50 μl of bead/membrane mixture is then added to each well of a 96 well plate, followed by 50 μl of 4 nM 3H-Vasopressin (American Radiolabeled Chemicals). For total binding measurement 100 μl of binding buffer are added to the respective wells, for non-specific binding 100 μl of 8.4 mM cold vasopressin and for compound testing 100 μl of a serial dilution of each compound in 2% dimethyl sulfoxide. The plate is incubated 1 h at room temperature, centrifuged 1 min at 1000 g and counted on a Packard Top-Count. Non-specific binding counts are subtracted from each well and data is normalized to the maximum specific binding set at 100%. To calculate an IC50 the curve is fitted using a non-linear regression model (XLfit) and the Ki is calculated using the Cheng-Prussoff equation.

Structure (SMILES) | Ki [nM]
CN1Cc2cc(Cl)ccc2-n2c(nnc2[C@H]2CC[C@H](c3cccc(Cl)n3)CC2)C1 [Example 18, trans-8-Chloro-1-[4-(6-chloro-pyridin-2-yl)-cyclohexyl]-5-methyl-5,6-dihydro-4H-2,3,5,10b-tetraaza-benzo[e]azulene] | 0.603
Fc1cnc([C@H]2CC[C@H](c3nnc4n3-c3ccc(Cl)cc3CNC4)CC2)c(F)c1 [Example 86, trans-8-Chloro-1-[4-(3,5-difluoro-pyridin-2-yl)-cyclohexyl]-5,6-dihydro-4H-2,3,5,10b-tetraaza-benzo[e]azulene] | 9.33
COc1cccc([C@H]2CC[C@H](c3nnc4n3-c3ccc(Cl)cc3CN(C)C4)CC2)n1 [Example 15, trans-8-Chloro-1-[4-(6-methoxy-pyridin-2-yl)-cyclohexyl]-5-methyl-5,6-dihydro-4H-2,3,5,10b-tetraaza-benzo[e]azulene] | 3.31
CN1Cc2cc(Cl)ccc2-n2c(nnc2[C@H]2CC[C@H](c3cccnc3)CC2)C1 [Example 50, trans-8-Chloro-5-methyl-1-(4-pyridin-3-yl-cyclohexyl)-5,6-dihydro-4H-2,3,5,10b-tetraaza-benzo[e]azulene] | 4.57
CN(C)S(=O)(=O)N1Cc2cc(Cl)ccc2-n2c(nnc2[C@H]2CC[C@H](c3ncccc3F)CC2)C1 [Example 41, trans-8-Chloro-1-[4-(3-fluoro-pyridin-2-yl)-cyclohexyl]-4H,6H-2,3,5,10b-tetraaza-benzo[e]azulene-5-sulfonic acid dimethylamide] | 0.603
CC(C)(C)OC(=O)N1Cc2cc(Cl)ccc2-n2c(nnc2[C@H]2CC[C@H](c3ncc(F)cc3F)CC2)C1 [Example 85, trans-8-Chloro-1-[4-(3,5-difluoro-pyridin-2-yl)-cyclohexyl]-4H,6H-2,3,5,10b-tetraaza-benzo[e]azulene-5-carboxylic acid tert-butyl ester] | 1.1
O=C(CO)N1Cc2cc(Cl)ccc2-n2c(nnc2[C@H]2CC[C@H](c3ncccc3F)CC2)C1 [Example 38, trans-1-{8-Chloro-1-[4-(3-fluoro-pyridin-2-yl)-cyclohexyl]-4H,6H-2,3,5,10b-tetraaza-benzo[e]azulen-5-yl}-2-hydroxy-ethanone] | 2.29
Cc1cccc([C@H]2CC[C@H](c3nnc4n3-c3ccc(Cl)cc3CN(C(=O)OC(C)(C)C)C4)CC2)n1 [Example 4, trans-8-Chloro-1-[4-(6-methyl-pyridin-2-yl)-cyclohexyl]-4H,6H-2,3,5,10b-tetraaza-benzo[e]azulene-5-carboxylic acid tert-butyl ester] | 0.2
CN1Cc2cc(Cl)ccc2-n2c(nnc2[C@H]2CC[C@H](c3cccnc3Cl)CC2)C1 [Example 53, trans-8-Chloro-1-[4-(2-chloro-pyridin-3-yl)-cyclohexyl]-5-methyl-5,6-dihydro-4H-2,3,5,10b-tetraaza-benzo[e]azulene] | 13.8
Clc1ccc2c(c1)CNCc1nnc([C@H]3CC[C@@H](c4ncccn4)CC3)n1-2 [Example 61, cis-8-Chloro-1-(4-pyrimidin-2-yl-cyclohexyl)-5,6-dihydro-4H-2,3,5,10b-tetraaza-benzo[e]azulene] | 427
CCN1Cc2cc(Cl)ccc2-n2c(nnc2[C@H]2CC[C@H](c3ncccc3F)CC2)C1 [Example 31, trans-8-Chloro-5-ethyl-[4-(3-fluoro-pyridin-2-yl)-cyclohexyl]-5,6-dihydro-4H-2,3,5,10b-tetraaza-benzo[e]azulene] | 0.562
CN1Cc2cc(Cl)ccc2-n2c(nnc2[C@H]2CC[C@@H](c3ncccc3F)CC2)C1 [Example 47, cis-8-Chloro-1-[4-(3-fluoro-pyridin-2-yl)-cyclohexyl]-5-methyl-5,6-dihydro-4H-2,3,5,10b-tetraaza-benzo[e]azulene] | 25.1
Fc1cccnc1[C@H]1CC[C@H](c2nnc3n2-c2ccc(Cl)cc2CN(C2CCC2)C3)CC1 [Example 33, trans-8-Chloro-5-cyclobutyl-[4-(3-fluoro-pyridin-2-yl)-cyclohexyl]-5,6-dihydro-4H-2,3,5,10b-tetraaza-benzo[e]azulene] | 0.302
Cc1cc(C)nc([C@H]2CC[C@H](c3nnc4n3-c3ccc(Cl)cc3CN(C)C4)CC2)n1 [Example 65, trans-8-Chloro-1-[4-(4,6-dimethyl-pyrimidin-2-yl)-cyclohexyl]-5-methyl-5,6-dihydro-4H-2,3,5,10b-tetraaza-benzo[e]azulene] | 2.29
COc1cccc([C@H]2CC[C@H](c3nnc4n3-c3ccc(Cl)cc3CN(C(=O)OC(C)(C)C)C4)CC2)n1 [Example 13, trans-8-Chloro-1-[4-(6-methoxy-pyridin-2-yl)-cyclohexyl]-4H,6H-2,3,5,10b-tetraaza-benzoazulene-5-carboxylic acid tert-butyl ester] | 0.501
CN1Cc2cc(Cl)ccc2-n2c(nnc2[C@H]2CC[C@H](c3cc(Cl)ccn3)CC2)C1 [Example 27, trans-8-Chloro-1-[4-(4-chloro-pyridin-2-yl)-cyclohexyl]-5-methyl-5,6-dihydro-4H-2,3,5,10b-tetraaza-benzo[e]azulene] | 0.537
Clc1ccc2c(c1)CNCc1nnc([C@H]3CC[C@H](c4ncccc4Cl)CC3)n1-2 [Example 83, trans-8-Chloro-1-[4-(3-chloro-pyridin-2-yl)-cyclohexyl]-5,6-dihydro-4H-2,3,5,10b-tetraaza-benzo[e]azulene] | 7.24
CC(C)(C)OC(=O)N1Cc2cc(Cl)ccc2-n2c(nnc2[C@H]2CC[C@H](c3cccnc3)CC2)C1 [Example 48, trans-8-Chloro-1-(4-pyridin-3-yl-cyclohexyl)-4H,6H-2,3,5,10b-tetraaza-benzo[e]azulene-5-carboxylic acid tert-butyl ester] | 0.603
Clc1ccc2c(c1)CNCc1nnc([C@H]3CC[C@H](c4ncccn4)CC3)n1-2 [Example 59, trans-8-Chloro-1-(4-pyrimidin-2-yl-cyclohexyl)-5,6-dihydro-4H-2,3,5,10b-tetraaza-benzo[e]azulene] | 9.33
CN1Cc2cc(Cl)ccc2-n2c(nnc2[C@H]2CC[C@H](c3ccccn3)CC2)C1 [Example 3, trans-8-Chloro-5-methyl-1-(4-pyridin-2-yl-cyclohexyl)-5,6-dihydro-4H-2,3,5,10b-tetraaza-benzo[e]azulene] | 0.794
CC(C)(C)OC(=O)N1Cc2cc(Cl)ccc2-n2c(nnc2[C@H]2CC[C@H](c3ncccc3Cl)CC2)C1 [Example 82, trans-8-Chloro-1-[4-(3-chloro-pyridin-2-yl)-cyclohexyl]-4H,6H-2,3,5,10b-tetraaza-benzo[e]azulene-5-carboxylic acid tert-butyl ester] | 0.501
CS(=O)(=O)N1Cc2cc(Cl)ccc2-n2c(nnc2[C@H]2CC[C@H](c3ncccc3F)CC2)C1 [Example 40, trans-8-Chloro-1-[4-(3-fluoro-pyridin-2-yl)-cyclohexyl]-5-methanesulfonyl-5,6-dihydro-4H-2,3,5,10b-tetraaza-benzo[e]azulene] | 0.178
Cc1cc(C)nc([C@H]2CC[C@H](c3nnc4n3-c3ccc(Cl)cc3CNC4)CC2)n1 [Example 64, trans-8-Chloro-1-[4-(4,6-dimethyl-pyrimidin-2-yl)-cyclohexyl]-5,6-dihydro-4H-2,3,5,10b-tetraaza-benzo[e]azulene hydrochloride] | 18.6
Fc1cccnc1[C@H]1CC[C@H](c2nnc3n2-c2ccc(Cl)cc2CN(CC(F)F)C3)CC1 [Example 34, trans-8-Chloro-5-(2,2-difluoro-ethyl)-[4-(3-fluoro-pyridin-2-yl)-cyclohexyl]-5,6-dihydro-4H-2,3,5,10b-tetraaza-benzo[e]azulene] | 0.186
CCc1cccc([C@H]2CC[C@H](c3nnc4n3-c3ccc(Cl)cc3CN(C(=O)OC(C)(C)C)C4)CC2)n1 [Example 7, trans-8-Chloro-1-[4-(6-ethyl-pyridin-2-yl)-cyclohexyl]-4H,6H-2,3,5,10b-tetraaza-benzo[e]azulene-5-carboxylic acid tert-butyl ester] | 1
Cc1cc(C)nc([C@H]2CC[C@H](c3nnc4n3-c3ccc(Cl)cc3CN(C(=O)OC(C)(C)C)C4)CC2)n1 [Example 63, trans-8-Chloro-1-[4-(4,6-dimethyl-pyrimidin-2-yl)-cyclohexyl]-4H,6H-2,3,5,10b-tetraaza-benzo[e]azulene-5-carboxylic acid tert-butyl ester] | 0.398
CC(C)(C)OC(=O)N1Cc2cc(F)ccc2-n2c(nnc2[C@H]2CC[C@H](c3ncccc3F)CC2)C1 [Example 42, trans-8-Fluoro-[4-(3-fluoro-pyridin-2-yl)-cyclohexyl]-4H,6H-2,3,5,10b-tetraaza-benzo[e]azulene-5-carboxylic acid tert-butyl ester] | 0.525
